{
  "source": "ChEMBL document CHEMBL1201862",
  "about": "“PubChem BioAssay data set” (2004)",
  "key": {"[1]": {"molecular_target": "Lysosomal acid glucosylceramidase (Homo sapiens, UniProt P04062)", "sequence (P04062 whole entry)": "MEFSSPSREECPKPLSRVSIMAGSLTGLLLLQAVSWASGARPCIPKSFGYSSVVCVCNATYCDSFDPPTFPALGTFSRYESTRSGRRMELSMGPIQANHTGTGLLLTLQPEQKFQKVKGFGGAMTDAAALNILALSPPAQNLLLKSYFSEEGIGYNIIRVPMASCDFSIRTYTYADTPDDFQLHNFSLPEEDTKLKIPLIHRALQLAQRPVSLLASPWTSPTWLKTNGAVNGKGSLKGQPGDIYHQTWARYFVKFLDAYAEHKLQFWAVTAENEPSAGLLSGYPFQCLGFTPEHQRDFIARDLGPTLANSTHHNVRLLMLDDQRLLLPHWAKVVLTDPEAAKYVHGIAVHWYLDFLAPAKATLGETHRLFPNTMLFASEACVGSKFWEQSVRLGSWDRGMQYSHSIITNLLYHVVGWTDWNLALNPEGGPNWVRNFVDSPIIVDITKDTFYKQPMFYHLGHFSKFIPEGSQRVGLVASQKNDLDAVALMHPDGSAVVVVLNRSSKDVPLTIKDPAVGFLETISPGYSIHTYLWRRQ", "test": "Dose response cell-based high throughput screening assay to identify enhancers of beta-glucosidase activity. [Related pubchem assays: 784 ]", "assay_type": "functional"}, "[2]": {"molecular_target": "T1, G-protein coupled receptor 55 (Homo sapiens, UniProt Q9Y2T6)", "T1 sequence (Q9Y2T6 whole entry)": "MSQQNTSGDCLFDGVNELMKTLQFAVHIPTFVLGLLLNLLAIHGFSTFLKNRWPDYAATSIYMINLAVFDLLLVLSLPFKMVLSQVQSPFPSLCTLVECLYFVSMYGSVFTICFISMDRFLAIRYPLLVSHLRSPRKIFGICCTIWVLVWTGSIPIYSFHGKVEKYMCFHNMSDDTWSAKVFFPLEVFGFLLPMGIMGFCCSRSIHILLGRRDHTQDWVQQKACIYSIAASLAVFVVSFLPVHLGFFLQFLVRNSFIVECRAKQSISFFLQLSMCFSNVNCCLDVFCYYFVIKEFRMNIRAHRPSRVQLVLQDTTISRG", "test": "selective activators of receptor GPR55 – imaging, U2OS cells, beta-arrestin-GFP redistribution, primary screen (AID 1961)", "assay_type": "functional"}, "Cannabinoid receptor 2 [3]": {"molecular_target": "T2, Cannabinoid receptor 2 (Homo sapiens, UniProt P34972)", "T2 sequence (P34972 whole entry)": "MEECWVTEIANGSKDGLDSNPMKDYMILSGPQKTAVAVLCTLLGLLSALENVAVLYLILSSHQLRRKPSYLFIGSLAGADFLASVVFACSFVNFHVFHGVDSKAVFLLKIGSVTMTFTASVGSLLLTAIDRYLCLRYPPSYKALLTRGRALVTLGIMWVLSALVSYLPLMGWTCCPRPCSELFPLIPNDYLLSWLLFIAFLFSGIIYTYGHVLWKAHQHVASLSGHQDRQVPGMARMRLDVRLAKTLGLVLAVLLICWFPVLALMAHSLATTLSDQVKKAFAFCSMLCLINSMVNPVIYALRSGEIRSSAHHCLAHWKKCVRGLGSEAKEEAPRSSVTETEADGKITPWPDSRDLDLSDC", "test": "SAR analysis of antagonists of the Cannabinoid Receptor 2 using an Image-Based Assay - Set 2. [Related pubchem assays (depositor defined):AID1961, AID1965]", "assay_type": "functional"}, "Cannabinoid receptor 2 [4]": {"molecular_target": "T2, Cannabinoid receptor 2", "test": "SAR analysis of agonists of the Cannabinoid Receptor 2 using an Image-Based Assay - Set 2. [Related pubchem assays (depositor defined):AID1961, AID1965]", "assay_type": "functional"}, "[5]": {"molecular_target": "T1, G-protein coupled receptor 55", "test": "SAR analysis of selective Agonists of GPR55 using an Image-Based Assay. [Related pubchem assays (depositor defined):AID1961, AID1965]", "assay_type": "functional"}, "Cannabinoid receptor 1": {"molecular_target": "Cannabinoid receptor 1 (Homo sapiens, UniProt P21554)", "sequence (P21554 whole entry)": "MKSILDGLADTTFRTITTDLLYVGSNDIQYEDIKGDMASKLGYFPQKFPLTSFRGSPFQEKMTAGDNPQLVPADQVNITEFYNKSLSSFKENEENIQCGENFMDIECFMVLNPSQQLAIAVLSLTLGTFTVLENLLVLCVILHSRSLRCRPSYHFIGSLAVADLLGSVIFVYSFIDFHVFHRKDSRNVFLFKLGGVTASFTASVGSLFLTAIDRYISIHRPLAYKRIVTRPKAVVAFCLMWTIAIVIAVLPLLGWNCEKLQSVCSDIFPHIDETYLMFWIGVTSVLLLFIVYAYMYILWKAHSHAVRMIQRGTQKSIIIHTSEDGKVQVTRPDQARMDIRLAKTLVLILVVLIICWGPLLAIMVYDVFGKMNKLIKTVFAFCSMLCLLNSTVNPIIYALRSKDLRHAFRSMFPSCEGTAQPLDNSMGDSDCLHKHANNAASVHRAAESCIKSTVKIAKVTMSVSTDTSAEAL", "test": "SAR analysis of antagonists of the Cannabinoid Receptor 1 using an Image-Based Assay. [Related pubchem assays (depositor defined):AID1961, AID1965]", "assay_type": "functional"}, "[6]": {"molecular_target": "T3, Sphingosine 1-phosphate receptor 4 (Homo sapiens, UniProt O95977)", "T3 sequence (O95977 whole entry)": "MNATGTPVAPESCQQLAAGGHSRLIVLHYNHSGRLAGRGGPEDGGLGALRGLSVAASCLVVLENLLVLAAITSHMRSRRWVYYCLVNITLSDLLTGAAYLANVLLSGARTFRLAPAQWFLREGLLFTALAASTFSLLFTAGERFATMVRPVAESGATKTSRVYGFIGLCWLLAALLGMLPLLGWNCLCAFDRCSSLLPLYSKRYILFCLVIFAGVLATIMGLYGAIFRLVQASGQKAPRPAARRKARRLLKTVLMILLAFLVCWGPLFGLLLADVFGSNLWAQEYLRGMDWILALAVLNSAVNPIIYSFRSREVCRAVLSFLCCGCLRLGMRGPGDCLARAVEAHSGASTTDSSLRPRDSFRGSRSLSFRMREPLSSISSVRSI", "test": "Late-stage fluorescence dose response cell-based assay to identify agonists of the Sphingosine 1-Phosphate Receptor 4 (S1P4): purchased compounds EC50. [Related pubchem assays (depositor defined):AID1509, AID1523, AID1563, AID1686, AID1701, AID1801]", "assay_type": "functional"}, "[7]": {"molecular_target": "T4, Type-1 angiotensin II receptor (Homo sapiens, UniProt P30556)", "T4 sequence (P30556 whole entry)": "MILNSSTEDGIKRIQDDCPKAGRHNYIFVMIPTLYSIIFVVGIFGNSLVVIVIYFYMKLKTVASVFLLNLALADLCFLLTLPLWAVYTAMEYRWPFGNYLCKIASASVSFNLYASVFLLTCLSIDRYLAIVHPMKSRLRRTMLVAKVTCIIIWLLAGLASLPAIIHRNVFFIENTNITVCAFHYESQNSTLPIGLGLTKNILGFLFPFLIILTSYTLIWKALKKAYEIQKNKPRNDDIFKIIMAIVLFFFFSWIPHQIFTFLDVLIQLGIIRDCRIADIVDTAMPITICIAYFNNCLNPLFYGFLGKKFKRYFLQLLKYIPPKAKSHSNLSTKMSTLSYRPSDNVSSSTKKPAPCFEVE", "test": "agonist activity at AGTR1 – cell-based, uHTS hits, selectivity assay for APJ receptor agonist project, dose response (AID 488865);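 note: beta-arrestin recruitment to AT1 measured by enzyme fragment complementation luminescence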", "assay_type": "functional"}, "[8]": {"molecular_target": "Intestinal-type alkaline phosphatase (Homo sapiens, UniProt P09923)", "sequence (P09923 whole entry)": "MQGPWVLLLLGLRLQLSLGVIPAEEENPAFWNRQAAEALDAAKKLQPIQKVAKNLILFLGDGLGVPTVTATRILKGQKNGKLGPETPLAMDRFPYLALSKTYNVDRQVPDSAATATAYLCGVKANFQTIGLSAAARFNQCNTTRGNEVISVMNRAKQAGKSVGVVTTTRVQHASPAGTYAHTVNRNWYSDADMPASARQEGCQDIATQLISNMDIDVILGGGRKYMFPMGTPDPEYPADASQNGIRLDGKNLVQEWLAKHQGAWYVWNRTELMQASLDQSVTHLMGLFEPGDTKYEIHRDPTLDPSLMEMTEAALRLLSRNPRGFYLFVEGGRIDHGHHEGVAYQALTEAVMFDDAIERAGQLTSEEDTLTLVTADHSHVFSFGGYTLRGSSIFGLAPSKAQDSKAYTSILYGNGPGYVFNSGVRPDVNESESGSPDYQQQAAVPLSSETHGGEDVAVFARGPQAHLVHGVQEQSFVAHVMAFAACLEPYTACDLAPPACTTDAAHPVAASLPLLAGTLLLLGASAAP", "test": "activation of human intestinal alkaline phosphatase – biochemical, dose response (AID 488873)", "assay_type": "functional"}, "[9]": {"molecular_target": "Intestinal-type alkaline phosphatase (Mus musculus, UniProt P24822)", "sequence (P24822 whole entry)": "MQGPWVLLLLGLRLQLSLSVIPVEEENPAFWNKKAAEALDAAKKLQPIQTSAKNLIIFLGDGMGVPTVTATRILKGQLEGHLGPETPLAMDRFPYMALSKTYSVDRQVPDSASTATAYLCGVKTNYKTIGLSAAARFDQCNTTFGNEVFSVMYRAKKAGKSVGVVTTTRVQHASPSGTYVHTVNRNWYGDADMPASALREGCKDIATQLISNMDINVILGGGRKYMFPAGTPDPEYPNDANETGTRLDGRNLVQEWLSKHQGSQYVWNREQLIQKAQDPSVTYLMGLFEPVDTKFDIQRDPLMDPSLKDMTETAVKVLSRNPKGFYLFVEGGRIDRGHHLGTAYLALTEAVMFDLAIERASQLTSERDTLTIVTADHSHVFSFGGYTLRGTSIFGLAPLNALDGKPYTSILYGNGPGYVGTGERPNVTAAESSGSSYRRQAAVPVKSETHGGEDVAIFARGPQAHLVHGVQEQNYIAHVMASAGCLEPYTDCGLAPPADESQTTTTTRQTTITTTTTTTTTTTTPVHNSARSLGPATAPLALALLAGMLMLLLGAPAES", "test": "PubChem AID 488785", "assay_type": "functional"}, "[10]": {"molecular_target": "FAD-linked sulfhydryl oxidase ALR (Homo sapiens, UniProt P55789)", "sequence (P55789 whole entry)": "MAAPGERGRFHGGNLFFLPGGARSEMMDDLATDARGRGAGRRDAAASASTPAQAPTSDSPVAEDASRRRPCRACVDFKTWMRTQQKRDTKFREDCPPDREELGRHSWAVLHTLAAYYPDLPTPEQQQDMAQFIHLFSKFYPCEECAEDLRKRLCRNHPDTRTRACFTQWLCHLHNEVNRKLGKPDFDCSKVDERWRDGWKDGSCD", "test": "ALR-catalysed DTT oxidation blockers – biochemical, H2O2 detection, luminescence, cherry-pick, dose response (AID 493248)"}, "[11]": {"molecular_target": "T5, Alkaline phosphatase, tissue-nonspecific isozyme (Homo sapiens, UniProt P05186)", "T5 sequence (P05186 whole entry)": "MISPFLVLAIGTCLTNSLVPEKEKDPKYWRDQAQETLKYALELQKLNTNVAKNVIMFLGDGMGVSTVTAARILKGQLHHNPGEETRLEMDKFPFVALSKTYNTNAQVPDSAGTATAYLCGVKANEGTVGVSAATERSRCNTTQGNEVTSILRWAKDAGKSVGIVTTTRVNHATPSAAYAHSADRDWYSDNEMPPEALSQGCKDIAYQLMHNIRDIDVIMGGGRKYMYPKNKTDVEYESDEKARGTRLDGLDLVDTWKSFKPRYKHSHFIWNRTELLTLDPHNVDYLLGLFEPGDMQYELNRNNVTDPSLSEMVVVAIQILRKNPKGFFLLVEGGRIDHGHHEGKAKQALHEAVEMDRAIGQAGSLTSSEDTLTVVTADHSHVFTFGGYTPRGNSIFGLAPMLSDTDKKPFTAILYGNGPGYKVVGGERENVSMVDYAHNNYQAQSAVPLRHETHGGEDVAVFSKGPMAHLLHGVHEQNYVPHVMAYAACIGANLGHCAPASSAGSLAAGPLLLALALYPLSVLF", "test": "TNAP enzyme inhibition by screening hits, dose response, selectivity assay for mouse IAP inhibitor project, biochemical, human TNAP, uHTS hits (AID 488906)", "assay_type": "functional"}, "[12]": {"test": "luciferase reporter signal suppression in cells – H4 neuroglioma cells, luminescence, dose response (AID 1990)", "assay_type": "functional, cell-based"}, "[13]": {"test": "luciferase reporter signal reduction – luminescence, H4-C neuroglioblastoma cells, dose response (AID 2458);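 note: H4 neuroglioblastoma cells stably carrying a luciferase reporter gene fusion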", "assay_type": "functional, cell-based"}, "[14]": {"system": "Streptococcus sp. 'group A'", "test": "Streptococcus pyogenes SK(-)GAS viability under kanamycin – luminescence, BacTiterGlo, confirmation, counter-screen for streptokinase expression inhibitor project, dose response (AID 1900)", "assay_type": "functional, organism-based"}, "cells": {"test": "cells", "assay_type": "functional, cell-based"}, "[15]": {"test": "Luminescence Cell-Based Dose Response HTS to Identify Inhibitors of 5'UTR Stem-Loop Driven Prion Protein mRNA Translation in H4 Neuroglioblastoma Cells. [Related pubchem assays: 1827 (Project Summary), 1813 (Primary HTS)]", "assay_type": "functional"}, "[16]": {"test": "alpha-synuclein stem-loop luciferase translation blockers – H4 neuroglioma cells, luminescence, confirmation (AID 1988)", "assay_type": "functional, cell-based"}, "[17]": {"molecular_target": "T6, Kappa-type opioid receptor (Homo sapiens, UniProt P41145)", "T6 sequence (P41145 whole entry)": "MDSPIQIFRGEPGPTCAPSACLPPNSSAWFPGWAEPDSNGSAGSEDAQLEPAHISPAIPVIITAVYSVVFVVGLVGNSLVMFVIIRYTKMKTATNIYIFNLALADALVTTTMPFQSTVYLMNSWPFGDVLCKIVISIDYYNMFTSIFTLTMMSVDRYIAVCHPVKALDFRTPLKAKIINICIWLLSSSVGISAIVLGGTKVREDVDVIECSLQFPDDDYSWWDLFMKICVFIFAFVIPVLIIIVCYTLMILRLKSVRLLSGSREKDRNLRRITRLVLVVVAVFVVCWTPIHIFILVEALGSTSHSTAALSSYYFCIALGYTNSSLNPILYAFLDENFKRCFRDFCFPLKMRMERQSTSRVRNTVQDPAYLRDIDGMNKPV", "assay_type": "functional"}, "Beta-galactosidase": {"molecular_target": "Beta-galactosidase (Escherichia coli, UniProt Q8VNN2)", "sequence (Q8VNN2 whole entry)": "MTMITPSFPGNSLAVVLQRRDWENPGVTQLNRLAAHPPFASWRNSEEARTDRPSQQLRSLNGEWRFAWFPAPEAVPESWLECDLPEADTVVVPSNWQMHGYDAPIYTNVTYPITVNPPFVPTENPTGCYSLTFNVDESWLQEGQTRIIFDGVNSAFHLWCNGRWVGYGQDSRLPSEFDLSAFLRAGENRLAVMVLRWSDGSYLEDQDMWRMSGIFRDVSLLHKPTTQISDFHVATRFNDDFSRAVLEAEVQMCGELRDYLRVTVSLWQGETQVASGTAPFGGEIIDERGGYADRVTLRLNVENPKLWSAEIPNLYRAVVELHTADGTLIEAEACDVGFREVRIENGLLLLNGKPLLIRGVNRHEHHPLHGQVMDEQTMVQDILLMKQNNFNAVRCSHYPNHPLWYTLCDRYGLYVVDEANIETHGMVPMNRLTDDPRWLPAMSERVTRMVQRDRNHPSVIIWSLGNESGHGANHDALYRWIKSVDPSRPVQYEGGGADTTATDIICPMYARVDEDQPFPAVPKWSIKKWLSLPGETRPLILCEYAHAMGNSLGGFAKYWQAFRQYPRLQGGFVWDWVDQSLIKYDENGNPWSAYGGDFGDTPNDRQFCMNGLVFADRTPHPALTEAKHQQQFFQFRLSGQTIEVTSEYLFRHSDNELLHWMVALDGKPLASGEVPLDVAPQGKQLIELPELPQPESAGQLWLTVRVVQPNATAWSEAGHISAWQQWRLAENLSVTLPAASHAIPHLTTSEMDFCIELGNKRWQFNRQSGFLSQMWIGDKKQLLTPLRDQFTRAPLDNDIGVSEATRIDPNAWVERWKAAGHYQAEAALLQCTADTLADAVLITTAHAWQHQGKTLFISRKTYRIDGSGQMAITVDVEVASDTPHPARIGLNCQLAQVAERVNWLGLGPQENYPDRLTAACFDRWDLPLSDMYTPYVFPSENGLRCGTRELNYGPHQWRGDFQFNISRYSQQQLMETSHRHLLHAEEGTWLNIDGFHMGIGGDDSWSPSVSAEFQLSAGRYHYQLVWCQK", "assay_type": "functional"}, "[18]": {"molecular_target": "T6, Kappa-type opioid receptor", "assay_type": "functional", "remark": "listed apart in the source"}, "Streptococcus": {"system": "Streptococcus", "test": "GAS UMAA2166 growth inhibition – luminescence, BacTiterGlo, counter-screen for streptokinase expression inhibitor project, dose response (AID 1915);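 note: potency for reduction of bacterial viability or growth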", "assay_type": "functional, organism-based"}, "[19]": {"test": "alpha-synuclein stem-loop translation blockers – luminescence, H4 neuroglioblastoma cells, dose confirmation, confirmation (AID 2454);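 note: potency for inhibition of the luciferase signal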", "assay_type": "functional, cell-based"}, "[20]": {"molecular_target": "Heat shock protein HSP 90-alpha (Homo sapiens, UniProt P07900)", "assay_type": "functional, organism-based"}, "INS1": {"system": "INS1", "test": "INS-1E survival protection against cytokine death – cell-based, luminescence, retest, dose response (AID 449756);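 note: cell death triggered by IL-1 beta plus TNF-alpha plus IFN-gamma mixture; protective hits raise ATP signal compared with cytokine alone wells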", "assay_type": "functional", "conditions": "Rattus norvegicus"}, "Vero": {"system": "Vero", "test": "cells", "assay_type": "functional", "conditions": "Chlorocebus sabaeus"}},
  "note": "Calls of active or inactive are those of the source.",
  "data": [
    {"smiles": "CCCc1cc(O)nc(SCC(=O)CSc2nc(O)cc(CCC)n2)n1", "values": [
      {"measurement": "EC50", "setting": "[1]", "value": "> 50 µM (not active)"}
    ]},
    {"smiles": "COc1cc2c(cc1NC(=O)CSc1ccccc1)oc1ccccc12", "values": [
      {"measurement": "EC50", "setting": "[2]", "value": "0.671 µM (active)"},
      {"measurement": "IC50", "setting": "Cannabinoid receptor 2 [3]", "value": "> 32 µM (inactive)"},
      {"measurement": "EC50", "setting": "Cannabinoid receptor 2 [4]", "value": "> 32 µM (inactive)"},
      {"measurement": "EC50", "setting": "[5]", "value": "0.627 µM (active)"},
      {"measurement": "IC50", "setting": "Cannabinoid receptor 1", "value": "> 32 µM (inactive)"}
    ]},
    {"smiles": "Cc1ccc(OC(C)C(=O)Nc2cc(Cl)ccc2Cl)c([N+](=O)[O-])n1", "note": "(configuration not stated)", "values": [
      {"measurement": "EC50", "setting": "[6]", "value": "> 50 µM (inactive)"}
    ]},
    {"smiles": "O=C(Cn1ncc2c3ccccc3nc-2c1O)Nc1ccc(CN2CCCCC2)cc1", "values": [
      {"measurement": "EC50", "setting": "[7]", "value": "> 100 µM (inactive)"}
    ]},
    {"smiles": "C/N=C1/SC(CC(=O)Nc2cccc(C(F)(F)F)c2)C(=O)N1C", "note": "(configuration not stated)", "values": [
      {"measurement": "EC50", "setting": "[1]", "value": "> 50 µM (not active)"}
    ]},
    {"smiles": "Cc1ccc(C)c(S(=O)(=O)Nc2ccc(O)c(Sc3nnc[nH]3)c2)c1", "values": [
      {"measurement": "EC50", "setting": "[8]", "value": "11.9 µM (active)"},
      {"measurement": "IC50", "setting": "[9]", "value": "2.75 µM (active)"},
      {"measurement": "AC50", "setting": "[10]", "value": "2.05 µM (active)"},
      {"measurement": "IC50", "setting": "[11]", "value": "5.46 µM (active)"}
    ]},
    {"smiles": "COc1ccc(N=Nc2ccc(O)c3ncccc23)cc1", "values": [
      {"measurement": "EC50", "setting": "[12]", "value": "8.21 µM (active)"},
      {"measurement": "EC50", "setting": "[13]", "value": "> 12 µM (not active)"},
      {"measurement": "EC50", "setting": "[14]", "value": "0.191 µM (active)"},
      {"measurement": "EC50", "setting": "cells", "value": "1.65 µM (active)"},
      {"measurement": "EC50", "setting": "[15]", "value": "6.71 µM (active)"},
      {"measurement": "EC50", "setting": "[16]", "value": "< 0.1 µM (active)"},
      {"measurement": "IC50", "setting": "[17]", "value": "5.64 µM (active)"},
      {"measurement": "EC50", "setting": "Beta-galactosidase", "value": "24.6 µM (active)"},
      {"measurement": "IC50", "setting": "[18]", "value": "> 32", "unit": "µM"},
      {"measurement": "EC50", "setting": "Streptococcus", "value": "2.5 µM (active)"},
      {"measurement": "EC50", "setting": "[19]", "value": "> 12 µM (not active)"},
      {"measurement": "AC50", "setting": "[20]", "value": "3.34 µM (active)"},
      {"measurement": "AC50", "setting": "INS1", "value": "1.16 µM (active)"},
      {"measurement": "CC50", "setting": "Vero", "value": "6.3 µM (active)"}
    ]}
  ]
}
